Molecules are shown by their SMILES.

In the test the target is T1, FLT4 (VEGFR3) (Homo sapiens, UniProt P35916).
T1 construct: purchased Thermo Fisher Scientific (Life Technologies) SelectScreen
Kind of test: SelectScreen Z'LYTE. In kind it is biochemical. Summed up: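 NU5455 was profiled across the SelectScreen Broad panel of kinase activity and binding assays. Z'LYTE reactions such as CSF1R ran at apparent Km ATP, while the Adapta CAMK1 assay used ATP listed as 10. Values are given as percent.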

T1 sequence (P35916 25-1363): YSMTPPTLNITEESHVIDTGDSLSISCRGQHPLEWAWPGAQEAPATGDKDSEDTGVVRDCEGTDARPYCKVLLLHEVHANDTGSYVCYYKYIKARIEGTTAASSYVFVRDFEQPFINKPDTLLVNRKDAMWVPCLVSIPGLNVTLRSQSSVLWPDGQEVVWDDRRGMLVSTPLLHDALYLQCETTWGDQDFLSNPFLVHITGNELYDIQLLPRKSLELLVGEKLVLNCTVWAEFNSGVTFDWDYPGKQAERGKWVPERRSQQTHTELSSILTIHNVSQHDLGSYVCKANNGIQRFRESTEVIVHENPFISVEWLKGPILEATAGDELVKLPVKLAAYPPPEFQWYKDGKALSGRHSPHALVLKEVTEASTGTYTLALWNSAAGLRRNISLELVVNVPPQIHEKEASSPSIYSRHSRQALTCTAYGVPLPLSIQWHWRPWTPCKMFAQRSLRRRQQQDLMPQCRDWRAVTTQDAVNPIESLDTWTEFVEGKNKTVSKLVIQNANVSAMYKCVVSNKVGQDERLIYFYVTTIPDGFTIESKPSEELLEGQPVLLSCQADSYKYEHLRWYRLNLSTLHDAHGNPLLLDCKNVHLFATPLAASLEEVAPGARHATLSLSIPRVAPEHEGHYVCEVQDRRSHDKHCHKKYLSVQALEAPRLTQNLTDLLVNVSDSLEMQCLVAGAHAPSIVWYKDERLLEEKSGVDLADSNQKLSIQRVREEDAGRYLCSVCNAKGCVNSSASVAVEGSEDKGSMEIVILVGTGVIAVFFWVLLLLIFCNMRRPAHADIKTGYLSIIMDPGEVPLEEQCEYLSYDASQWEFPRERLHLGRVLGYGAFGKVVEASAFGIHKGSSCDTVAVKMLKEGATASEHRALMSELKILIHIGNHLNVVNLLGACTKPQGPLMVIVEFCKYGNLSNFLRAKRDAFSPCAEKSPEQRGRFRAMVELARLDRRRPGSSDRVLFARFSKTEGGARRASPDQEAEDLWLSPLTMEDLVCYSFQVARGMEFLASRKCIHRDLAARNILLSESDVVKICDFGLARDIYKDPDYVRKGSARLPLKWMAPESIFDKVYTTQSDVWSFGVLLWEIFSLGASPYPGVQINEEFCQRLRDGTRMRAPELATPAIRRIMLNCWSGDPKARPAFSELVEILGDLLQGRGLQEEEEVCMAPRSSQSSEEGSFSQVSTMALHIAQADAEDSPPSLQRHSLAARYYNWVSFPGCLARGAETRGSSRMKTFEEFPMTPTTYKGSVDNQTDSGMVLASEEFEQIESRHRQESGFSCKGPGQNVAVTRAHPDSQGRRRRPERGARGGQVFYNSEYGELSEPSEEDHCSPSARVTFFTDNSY

In general, inhibition refers to the change of the read-out against control, counted positive when it falls. A low value points to little suppression. As to `CN(C(=O)CN1CCOCC1)c1ccc2sc3c(-c4cccc5c(=O)cc(N6CC7CCC(C6)O7)oc45)cccc3c2c1` [NU5455], the inhibition at 1 µM came out at 3.5%.

The values above are taken from PMC6934184, “Selective DNA-PKcs inhibition extends the therapeutic index of localized radiotherapy and chemotherapy” (The Journal of Clinical Investigation, 2019).
